# Columns and labels:
# Type in all cases: cell-based
# [1] = system: Wnt activity (Sp5-Luc reporter, SW480 colon carcinoma cells); test: Wnt activity screening assay: Sp5-Luc reporter gene assay in SW480 cells; details: Homo sapiens; for EC50: SW480 cells, overnight incubation; for inhibition at 10 µM: given where EC50 >10 μM, SW480, read-out: percent inhibition at 10 μM
# How it was run: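 Luminescence (BrightGlo) read after overnight 37 °C exposure of Sp5-Luc SW480 reporter cells, 4,000/well in 1% FBS, to compound dosed 1:3 over 10 points from 10 μM with 0.1% DMSO. Values normalized to DMSO-only cells, fitted with variable-slope four-parameter model; where EC50 exceeds 10 μM, % inhibition at 10 μM reported.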
# [2] = system: SW480 colon cancer cells; test: Cell viability assay (CellTiter-Blue); details: Homo sapiens; for EC50: 96 h, SW480 cell viability, four days, CellTiter-Blue; for inhibition at 10 µM: given where EC50 >10 μM, SW480 viability, read-out: percent inhibition at 10 μM
# How it was run: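 Resazurin reduction (Ex 560/Em 590 nm, ~3 h reagent incubation) served as the viability read-out after SW480 cells were treated for four days at 37 °C. Doses ran from 10 μM down to 0.0045 μM in eight 1:3 steps. Curves fitted non-linearly for EC50, else % inhibition at 10 μM reported.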
# [3] = system: IL-6 (THP-1 cells); test: IL-6 inhibition in LPS-stimulated THP-1 cells (HTRF); details: Homo sapiens; for EC50: THP-1 cells, LPS 500 ng/mL, 22 hours, IL6 HTRF; for inhibition at 10 µM: given where EC50 >10 μM, THP-1, IL6, read-out: percent inhibition at 10 μM
# How it was run: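 THP-1 cells, pre-cultured 24 h in 1% FBS, were preincubated 2 h with compound over a 10-point 1:3 series from 10 μM (0.1% DMSO). They were then stimulated with 500 ng/mL LPS for 22 h at 37° C. IL-6 was read by HTRF 665/620 nm ratio, and EC50 was fitted by four-parameter regression against DMSO; above 10 μM, % inhibition at 10 μM is given.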
EC50 [1],EC50 [2],EC50 [3],SMILES,inhibition at 10 µM [1],inhibition at 10 µM [2],inhibition at 10 µM [3]
> 10 µM,> 10 µM,0.418 µM,"CN(C)c1cncc(-c2ccc3[nH]nc(-c4cc5c(-c6ccoc6)ccnc5[nH]4)c3n2)c1 [Compound 315, 5-(3-(4-(Furan-3-yl)-1H-pyrrolo[2,3-b]pyridin-2-yl)-1H-pyrazolo[4,3-b]pyridin-5-yl)-N,N-dimethylpyridin-3-amine]",6.6%,6.1%,–
3.71 µM,> 10 µM,0.106 µM,"c1csc(-c2ccnc3[nH]c(-c4n[nH]c5ccc(-c6cncc(OC7CCNCC7)c6)nc45)cc23)c1 [Compound 704, 5-(5-(Piperidin-4-yloxy)pyridin-3-yl)-3-(4-(thiophen-2-yl)-1H-pyrrolo[2,3-b]pyridin-2-yl)-1H-pyrazolo[4,3-b]pyridine]",–,49.5%,–
> 10 µM,> 10 µM,> 10 µM,"O=C(Cc1ccccc1)Nc1cncc(-c2ccc3[nH]nc(-c4cc5c(-c6ccoc6)ccnc5[nH]4)c3n2)c1 [Compound 318, N-(5-(3-(4-(Furan-3-yl)-1H-pyrrolo[2,3-b]pyridin-2-yl)-1H-pyrazolo[4,3-b]pyridin-5-yl)pyridin-3-yl)-2-phenylacetamide]",3.4%,3%,46.6%
> 10 µM,> 10 µM,> 10 µM,"c1cc(-c2ccnc3[nH]c(-c4n[nH]c5ccc(-c6cncc(OCCN7CCCC7)c6)nc45)cc23)ccn1 [Compound 578, 3-(4-(Pyridin-4-yl)-1H-pyrrolo[2,3-b]pyridin-2-yl)-5-(5-(2-(pyrrolidin-1-yl)ethoxy)pyridin-3-yl)-1H-pyrazolo[4,3-b]pyridine]",7.7%,14.7%,27%
> 10 µM,> 10 µM,4.93 µM,"FC1(F)CCN(Cc2cncc(-c3ccc4[nH]nc(-c5cc6c(-c7cccnc7)ccnc6[nH]5)c4n3)c2)C1 [Compound 110, 5-(5-((3,3-Difluoropyrrolidin-1-yl)methyl)pyridin-3-yl)-3-(4-(pyridin-3-yl)-1H-pyrrolo[2,3-b]pyridin-2-yl)-1H-pyrazolo[4,3-b]pyridine]",47.7%,12.3%,–
> 10 µM,> 10 µM,> 10 µM,"c1cncc(-c2ccc3[nH]nc(-c4cc5c(-c6cccnc6)ccnc5[nH]4)c3n2)c1 [Compound 88, 5-(Pyridin-3-yl)-3-(4-(pyridin-3-yl)-1H-pyrrolo[2,3-b]pyridin-2-yl)-1H-pyrazolo[4,3-b]pyridine]",10.1%,31.2%,38.7%
0.255 µM,> 10 µM,0.008 µM,"CC(C)Nc1cncc(-c2ccc3[nH]nc(-c4cc5c(-c6cccnc6)ccnc5[nH]4)c3n2)c1 [Compound 96, N-Isopropyl-5-(3-(4-(pyridin-3-yl)-1H-pyrrolo[2,3-b]pyridin-2-yl)-1H-pyrazolo[4,3-b]pyridin-5-yl)pyridin-3-amine]",–,0%,–
> 10 µM,> 10 µM,> 10 µM,"O=C(Nc1cncc(-c2ccc3[nH]nc(-c4cc5c(-c6ccc(F)cc6)ccnc5[nH]4)c3n2)c1)c1ccccc1 [Compound 39, N-(5-(3-(4-(4-Fluorophenyl)-1H-pyrrolo[2,3-b]pyridin-2-yl)-1H-pyrazolo [4,3-b]pyridin-5-yl)pyridin-3-yl)benzamide]",0%,11.1%,7.7%
> 10 µM,> 10 µM,> 10 µM,"c1cc(-c2ccnc3[nH]c(-c4n[nH]c5ccc(-c6cncc(CN7CCCCC7)c6)nc45)cc23)ccn1 [Compound 127, 5-(5-(Piperidin-1-ylmethyl)pyridin-3-yl)-3-(4-(pyridin-4-yl)-1H-pyrrolo[2,3-b]pyridin-2-yl)-1H-pyrazolo[4,3-b]pyridine]",5.8%,14.5%,30.2%
0.517 µM,> 10 µM,0.1 µM,"CC(C)CC(=O)Nc1cncc(-c2ccc3[nH]nc(-c4cc5c(-c6ccccc6F)ccnc5[nH]4)c3n2)c1 [Compound 58, N-(5-(3-(4-(2-Fluorophenyl)-1H-pyrrolo[2,3-b]pyridin-2-yl)-1H-pyrazolo [4,3-b]pyridin-5-yl)pyridin-3-yl)-3-methylbutanamide]",–,11.5%,–
> 10 µM,> 10 µM,> 10 µM,"CN1CCN(c2ccnc3[nH]c(-c4n[nH]c5ccc(-c6cn[nH]c6)nc45)cc23)CC1 [Compound 635, 3-(4-(4-Methylpiperazin-1-yl)-1H-pyrrolo[2,3-b]pyridin-2-yl)-5-(1H-pyrazol-4-yl)-1H-pyrazolo[4,3-b]pyridine]",13.4%,13.3%,8.4%
> 10 µM,> 10 µM,> 10 µM,"Fc1ccc(-c2ccnc3[nH]c(-c4n[nH]c5ccc(-c6cncnc6)nc45)cc23)cc1 [Compound 55, 3-(4-(4-Fluorophenyl)-1H-pyrrolo[2,3-b]pyridin-2-yl)-5-(pyrimidin-5-yl)-1H-pyrazolo[4,3-b]pyridine]",32%,20.5%,14.1%
3.45 µM,1.55 µM,3.27 µM,"CC(C)CC(=O)Nc1cncc(-c2ccc3[nH]nc(-c4cc5c(N6CCN(C)CC6)ccnc5[nH]4)c3n2)c1 [Compound 226, 3-Methyl-N-(5-(3-(4-(4-methylpiperazin-1-yl)-1H-pyrrolo[2,3-b]pyridin-2-yl)-1H-pyrazolo[4,3-b]pyridin-5-yl)pyridin-3-yl)butanamide]",–,–,–
> 10 µM,> 10 µM,0.002 µM,"c1cncc(-c2ccc3[nH]nc(-c4cc5cccnc5[nH]4)c3n2)c1 [Compound 256, 5-(Pyridin-3-yl)-3-(1H-pyrrolo[2,3-b]pyridin-2-yl)-1H-pyrazolo[4,3-b]pyridine]",47%,23.2%,–
> 10 µM,> 10 µM,> 10 µM,"Fc1cccc(-c2ccnc3[nH]c(-c4n[nH]c5ccc(-c6cncc(CN7CCCCC7)c6)nc45)cc23)c1 [Compound 15, 3-(4-(3-Fluorophenyl)-1H-pyrrolo[2,3-b]pyridin-2-yl)-5-(5-(piperidin-1-ylmethyl)pyridin-3-yl)-1H-pyrazolo[4,3-b]pyridine]",8%,29.9%,41%
> 10 µM,> 10 µM,> 10 µM,"CN(C)c1cncc(-c2ccc3[nH]nc(-c4cc5c(-c6cccnc6)ccnc5[nH]4)c3n2)c1 [Compound 91, N,N-Dimethyl-5-(3-(4-(pyridin-3-yl)-1H-pyrrolo[2,3-b]pyridin-2-yl)-1H-pyrazolo[4,3-b]pyridin-5-yl)pyridin-3-amine]",18.2%,3.5%,36.3%
> 10 µM,> 10 µM,> 10 µM,"CN(C)CCOc1cncc(-c2ccc3[nH]nc(-c4cc5c(-c6cccnc6)ccnc5[nH]4)c3n2)c1 [Compound 563, N,N-Dimethyl-2-((5-(3-(4-(pyridin-3-yl)-1H-pyrrolo[2,3-b]pyridin-2-yl)-1H-pyrazolo[4,3-b]pyridin-5-yl)pyridin-3-yl)oxy)ethan-1-amine]",7.2%,0%,20.3%
3.91 µM,2 µM,> 10 µM,"CN1CCN(c2ccnc3[nH]c(-c4n[nH]c5ccc(-c6cncc(NC(=O)CC(C)(C)C)c6)nc45)cc23)CC1 [Compound 240, 3,3-Dimethyl-N-(5-(3-(4-(4-methylpiperazin-1-yl)-1H-pyrrolo[2,3-b]pyridin-2-yl)-1H-pyrazolo[4,3-b]pyridin-5-yl)pyridin-3-yl)butanamide]",–,–,43.5%
> 10 µM,> 10 µM,> 10 µM,"Fc1cccc(-c2ccnc3[nH]c(-c4n[nH]c5ccc(-c6cncc(OCc7ccccc7)c6)nc45)cc23)c1 [Compound 518, 5-(5-(Benzyloxy)pyridin-3-yl)-3-(4-(3-fluorophenyl)-1H-pyrrolo[2,3-b]pyridin-2-yl)-1H-pyrazolo[4,3-b]pyridine]",16.7%,17.3%,9.6%
> 10 µM,> 10 µM,> 10 µM,"CC(C)(C)C(=O)Nc1cncc(-c2ccc3[nH]nc(-c4cc5c(-c6cccc(F)c6)ccnc5[nH]4)c3n2)c1 [Compound 8, N-(5-(3-(4-(3-Fluorophenyl)-1H-pyrrolo[2,3-b]pyridin-2-yl)-1H-pyrazolo [4,3-b]pyridin-5-yl)pyridin-3-yl)pivalamide]",14.3%,18.4%,13.7%

# — US10206909B2, “3-(1H-pyrrolo[2,3-B]pyridin-2-yl)-1H-pyrazolo[4,3-B]pyridines and therapeutic uses thereof” (Samumed, LLC, priority 2015, dated 2019)
